From ChEMBL document CHEMBL3091420, “Synthesis and biochemical evaluation of highly enantiomerically pure (R,R)- and (S,S)-alexidine” (Bioorg Med Chem, 2013)
pIC50: −log10 of the molar value. Structures can show the parent of a compound that is named as a salt.

Each compound was assayed against Bcl-xL/BAK (Homo sapiens, UniProt Q07817+Q16611) (assay: Inhibition of Bcl-xL (1 to 206, delta 45 to 84)-BAK (unknown origin) protein interaction by fluorescence polarization assay).
Sequence of Bcl-xL/BAK (Q07817 whole entry): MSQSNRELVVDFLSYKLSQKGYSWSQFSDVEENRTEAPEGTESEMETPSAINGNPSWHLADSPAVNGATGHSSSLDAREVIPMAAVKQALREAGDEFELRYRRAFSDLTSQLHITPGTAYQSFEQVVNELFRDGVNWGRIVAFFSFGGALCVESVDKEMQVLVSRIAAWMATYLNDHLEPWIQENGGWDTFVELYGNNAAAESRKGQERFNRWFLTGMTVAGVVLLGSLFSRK
Sequence of Bcl-xL/BAK (Q16611 whole entry): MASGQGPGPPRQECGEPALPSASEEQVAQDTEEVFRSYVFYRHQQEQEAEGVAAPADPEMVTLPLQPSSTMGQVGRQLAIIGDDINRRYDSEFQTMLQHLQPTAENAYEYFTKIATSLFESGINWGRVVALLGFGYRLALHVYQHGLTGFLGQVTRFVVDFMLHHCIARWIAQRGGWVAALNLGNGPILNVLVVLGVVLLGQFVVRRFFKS

Point of comparison: CCCC[C@H](CC)CNC(=N)NC(=N)NCCCCCCNC(=N)NC(=N)NC[C@@H](CC)CCCC, pIC50 4.59. Against it:
- CCCCC(CC)CNC(=N)NC(=N)NCCCCCCNC(=N)NC(=N)NCC(CC)CCCC (mixture of isomers) [ALEXIDINE DIHYDROCHLORIDE] — within 0.2 log units, 4.74
- CCCC[C@@H](CC)CNC(=N)NC(=N)NCCCCCCNC(=N)NC(=N)NC[C@H](CC)CCCC — within 0.2 log units, 4.67
